In brackets after ≈: the same amount, converted by molar mass.
How the values were obtained:
MRSA-HR = assay: Antimicrobial activity, MIC by agar plate dilution method against MRSA-HR; assay type: cell-based, methicillin resistant Staphylococcus aureus; details: Staphylococcus aureus, read-out: minimal inhibitory concentration (MIC) against MRSA-HR
Method: (§1) The minimal inhibitory concentration (MIC, μg/mL) against MRSAs (MRSA-HR and MRSA-LR) were measured for typical comounds of novel aminoglycoside antibiotic derivatives described in the Examples (Example 1, Example 2, Example 9, Example 13, Example 18, Example 24, Example 44, Example 45, Example 48, Example 49, Example 51, Example 52, Example 53, Example 54, and Example 76) by an agar plate dilution method based on the method based on the JAPANESE SOCIETY OF CHEMOTHERAPY. As a result, the MIC value of the compounds described in the Examples was not more than 8 against MRSA-HR and not more than 4 against MRSA-LR. The same test was carried out for arbekacin described in Japanese Patent Laid-Open No. 164696/1980.

MRSA-LR = assay: Antimicrobial activity, MIC by agar plate dilution method against MRSA-LR; assay type: cell-based, methicillin resistant Staphylococcus aureus; details: Staphylococcus aureus, read-out: minimal inhibitory concentration (MIC) against MRSA-LR
Method: as §1

P. aeruginosa PAO1 = assay: Antimicrobial activity, MIC against P. aeruginosa PAO1; assay type: cell-based; details: Pseudomonas aeruginosa, read-out: minimal inhibitory concentration (MIC) against P. aeruginosa PAO1

MIC (MRSA-HR) [µg/mL] | MIC (MRSA-LR) [µg/mL] | MIC (P. aeruginosa PAO1) [µg/mL] | SMILES
≤ 8 | ≤ 4 | ≤ 4 | NCC[C@H](O)C(=O)NC1C[C@H](N)C(O[C@H]2OC(CN)CCC2N)C(O)[C@H]1O[C@H]1OC(CO)[C@H](O)C(N)C1O (some centres unmarked) [Example 1, 5,4″-diepiarbekacin]
≤ 8 | ≤ 4 | ≤ 4 | NCC[C@H](O)C(=O)NC1C[C@H](N)C(O[C@H]2OC(CN)CCC2N)C(F)[C@H]1O[C@H]1OC(CO)[C@H](O)C(N)C1O (stereo partly drawn) [Example 2, 5-Deoxy-4″-epi-5-epifluoroarbekacin]
≤ 8 | ≤ 4 | ≤ 4 | NCC1CCC(N)[C@@H](OC2C(O)[C@@H](O[C@H]3OC(CO)[C@H](O)C(N)C3O)C(NC(=O)[C@@H](O)CN)C[C@@H]2N)O1 (stereo partly drawn) [Example 9, 1-N-[(S)-(3-amino-2-hydroxypropanoyl)]-5,4″-diepidibekacin]
≤ 8 | ≤ 4 | ≤ 4 | NCC[C@H](O)C(=O)NC1C[C@H](N)C(O[C@H]2OC(CN)CCC2N)C(O)[C@H]1O[C@H]1OC(CO)[C@@H](O)C(N)C1O (some centres unmarked) [Example 13, 5-Epiarbekacin]
≤ 8 | ≤ 4 | ≤ 4 | NCC[C@H](O)C(=O)NC1C[C@H](N)C(O[C@H]2OC(CN)CCC2N)C(N)[C@H]1O[C@H]1OC(CO)[C@@H](O)C(N)C1O (some centres unmarked) [Example 18, 5-Deoxy-5-epiaminoarbekacin]
≤ 8 | ≤ 4 | ≤ 4 | NCCNC1C(O[C@H]2OC(CN)CCC2N)[C@@H](N)CC(NC(=O)[C@@H](O)CCN)[C@@H]1O[C@H]1OC(CO)[C@@H](O)C(N)C1O (stereo partly drawn) [Example 24, 5-Deoxy-5-epi(2-aminoethyl)aminoarbekacin]
≤ 8 | ≤ 4 | ≤ 4 | NCC[C@H](O)C(=O)NC1C[C@H](N)C(O[C@H]2OC(CN)C=CC2N)C(O)[C@H]1O[C@H]1OC(CO)[C@@H](O)C(N)C1O (some centres unmarked) [Example 44, 3′,4′-didehydro-5-epiarbekacin]
≤ 8 | ≤ 4 | ≤ 4 | NCC[C@H](O)C(=O)NC1C[C@H](N)C(O[C@H]2OC(CN)C=CC2N)C(F)[C@H]1O[C@H]1OC(CO)[C@@H](O)C(N)C1O (some centres unmarked) [Example 45, 5-Deoxy-3′,4′-didehydro-5-epifluoroarbekacin]
≤ 8 | ≤ 4 | ≤ 4 | NCC[C@H](O)C(=O)NC1C[C@H](N)C(O[C@H]2OC(CN)C=CC2N)C(N)[C@H]1O[C@H]1OC(CO)[C@@H](O)C(N)C1O (some centres unmarked) [Example 48, 5-Deoxy-3′,4′-didehydro-5-epiaminoarbekacin]
≤ 8 | ≤ 4 | ≤ 4 | NCC[C@H](O)C(=O)NC1C[C@H](N)C(O[C@H]2OC(CN)C=CC2N)C(O)[C@H]1O[C@H]1OC(CO)[C@H](O)C(N)C1O (some centres unmarked) [Example 51, 3′,4′-Didehydro-5,4″-diepiarbekacin]
≤ 8 | ≤ 4 | ≤ 4 | NCC[C@H](O)C(=O)NC1C[C@H](N)C(O[C@H]2OC(CN)C=CC2N)C(F)[C@H]1O[C@H]1OC(CO)[C@H](O)C(N)C1O (stereo partly drawn) [Example 52, 5-Deoxy-3′,4′-didehydro-4″-epi-5-epifluoroarbekacin]
≤ 8 | ≤ 4 | ≤ 4 | NCC[C@H](O)C(=O)NC1C[C@H](N)C(O[C@H]2OC(CN)C=CC2N)C(N)[C@H]1O[C@H]1OC(CO)[C@H](O)C(N)C1O (stereo partly drawn) [Example 53, 5-Deoxy-3′,4′-didehydro-4″-epi-5-epiaminoarbekacin]
≤ 8 | ≤ 4 | ≤ 4 | NCC[C@H](O)C(=O)NC1C[C@H](N)C(O[C@H]2OC(CN)C=CC2N)C(O)[C@H]1O[C@H]1OC(CO)CC(N)C1O (some centres unmarked) [Example 54, 4″-Deoxy-3′,4′-didehydro-5-epiarbekacin]
≤ 8 | ≤ 4 | ≤ 4 | NCC[C@H](O)C(=O)NC1C[C@H](N)C(O[C@H]2OC(CN)CCC2N)C(O)[C@H]1O[C@H]1OC(C(O)CN)[C@@H](O)C(N)C1O (some centres unmarked) [Example 76, 6″-Aminomethylarbekacin]
64 (≈ 116 µM) | 16 (≈ 29 µM) |  | NCC[C@H](O)C(=O)N[C@@H]1C[C@H](N)[C@@H](O[C@H]2O[C@H](CN)CC[C@H]2N)[C@H](O)[C@H]1O[C@H]1O[C@H](CO)[C@@H](O)[C@H](N)[C@H]1O [arbekacin, (S)-1-N-(4-amino-2-hydroxybutyroyl)dibekacin, reference compound]

Source: patent US20070161581A1, “Novel aminoglycoside antibiotics effective against methicillin resistant staphylococcus auerus (mrsas)” (priority 2004, published 2007)
